Laboratory results taken from patent US12552775B2, “Compounds and uses thereof” (Foghorn Therapeutics Inc., priority 2020, dated 2026).
Each block holds one compound with its values, some of them ahead of it.

What was measured:
HiBit-BRM fusion protein = molecular target: T1, HiBit-BRM fusion protein (Homo sapiens, UniProt P51531); test: HiBiT-BRM cell-based degradation assay (Nano-Glo HiBiT Lytic Detection, 24 h); conditions: stable HeLa cell line expressing HiBiT-BRM, top dose 30 μM
T1 construct: expressed in transfected cells
T1 sequence (P51531 whole entry, the tested form may be a part): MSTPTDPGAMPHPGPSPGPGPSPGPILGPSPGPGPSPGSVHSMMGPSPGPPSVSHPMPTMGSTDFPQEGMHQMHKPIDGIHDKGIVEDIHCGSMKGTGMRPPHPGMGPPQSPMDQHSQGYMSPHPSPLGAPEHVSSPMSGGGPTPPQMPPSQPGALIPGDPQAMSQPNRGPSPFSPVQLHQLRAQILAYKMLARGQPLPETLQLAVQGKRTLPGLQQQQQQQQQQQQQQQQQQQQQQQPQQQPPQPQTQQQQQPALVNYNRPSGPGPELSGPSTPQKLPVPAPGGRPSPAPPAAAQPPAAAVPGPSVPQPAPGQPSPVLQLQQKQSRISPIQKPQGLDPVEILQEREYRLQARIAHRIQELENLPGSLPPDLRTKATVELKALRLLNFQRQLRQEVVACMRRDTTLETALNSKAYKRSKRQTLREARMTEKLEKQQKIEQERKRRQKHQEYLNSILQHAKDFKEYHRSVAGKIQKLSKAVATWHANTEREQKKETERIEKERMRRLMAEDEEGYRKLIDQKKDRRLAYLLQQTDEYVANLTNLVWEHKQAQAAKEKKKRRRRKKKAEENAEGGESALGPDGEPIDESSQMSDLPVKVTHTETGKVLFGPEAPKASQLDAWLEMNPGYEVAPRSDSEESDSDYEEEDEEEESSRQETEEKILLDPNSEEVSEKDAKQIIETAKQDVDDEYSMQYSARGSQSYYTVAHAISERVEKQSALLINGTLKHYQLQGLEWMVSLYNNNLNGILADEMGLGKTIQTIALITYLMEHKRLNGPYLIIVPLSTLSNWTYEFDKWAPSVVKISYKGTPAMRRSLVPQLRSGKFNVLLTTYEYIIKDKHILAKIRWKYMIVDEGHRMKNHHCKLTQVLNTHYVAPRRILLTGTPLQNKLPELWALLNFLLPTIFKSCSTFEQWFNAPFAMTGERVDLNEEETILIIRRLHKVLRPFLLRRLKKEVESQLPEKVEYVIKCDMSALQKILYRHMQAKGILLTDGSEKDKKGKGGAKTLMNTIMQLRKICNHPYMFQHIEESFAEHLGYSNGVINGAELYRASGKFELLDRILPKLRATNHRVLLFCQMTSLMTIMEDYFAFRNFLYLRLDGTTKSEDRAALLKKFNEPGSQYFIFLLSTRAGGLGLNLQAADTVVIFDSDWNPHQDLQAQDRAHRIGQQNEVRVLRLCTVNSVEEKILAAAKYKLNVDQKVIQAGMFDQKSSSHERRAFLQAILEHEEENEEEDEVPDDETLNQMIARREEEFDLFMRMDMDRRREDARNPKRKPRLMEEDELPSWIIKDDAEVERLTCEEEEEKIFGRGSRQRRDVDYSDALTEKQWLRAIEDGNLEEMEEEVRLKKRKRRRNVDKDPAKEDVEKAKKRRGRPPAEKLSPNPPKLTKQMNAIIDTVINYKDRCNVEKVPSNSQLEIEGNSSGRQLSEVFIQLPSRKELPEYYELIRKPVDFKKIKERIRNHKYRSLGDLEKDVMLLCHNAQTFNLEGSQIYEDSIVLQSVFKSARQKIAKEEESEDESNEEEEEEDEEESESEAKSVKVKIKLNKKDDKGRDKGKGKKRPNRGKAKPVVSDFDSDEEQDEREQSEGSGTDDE
Procedure: (§1) Procedure: A stable HeLa cell line expressing HiBiT-BRM was generated. On day 0, 5000 cells were seeded in 40 μL of media into each well of 384-well cell culture plates. On day 1, cells were treated with 120 nL DMSO or 120 nL of 3-fold serially DMSO-diluted compounds (10 points in duplicate with 30 μM as final top dose). Subsequently plates were incubated for 24 h in a standard tissue culture incubator and equilibrated at room temperature for 15 minutes. Nano-Glo HiBiT Lytic Detection System (Promega N3050) reagent was freshly prepared and 20 ul was added to each well. Upon addition of this LgBit-containing reagent, the HiBiT and LgBiT proteins associate to form the luminescent NanoBiT luciferase. The plates were shaken for 10 minutes at room temperature and the bioluminescence read using an EnVision plate reader (PerkinElmer).
(§2) The degradation % was calculated using the following formula: % degradation=100%−100%×(Lumsample−LumLC)/(LumHC−LumLC). DMSO treated cells are employed as High Control (HC) and 2 μM of a known BRM/BRG1 degrader standard treated cells are employed as Low Control (LC).

[1] = molecular target: T2, HiBit-BRG1 fusion protein (Homo sapiens, UniProt P51532); test: HiBiT-BRG1 cell-based degradation assay (Nano-Glo HiBiT Lytic Detection, 24 h); conditions: stable HeLa cell line expressing HiBit-BRG1 and LgBit, top dose 30 μM, read-out: BRG1 HiBit Degradation Maximum (%)
T2 construct: expressed in transfected cells
T2 sequence (P51532 whole entry, the tested form may be a part): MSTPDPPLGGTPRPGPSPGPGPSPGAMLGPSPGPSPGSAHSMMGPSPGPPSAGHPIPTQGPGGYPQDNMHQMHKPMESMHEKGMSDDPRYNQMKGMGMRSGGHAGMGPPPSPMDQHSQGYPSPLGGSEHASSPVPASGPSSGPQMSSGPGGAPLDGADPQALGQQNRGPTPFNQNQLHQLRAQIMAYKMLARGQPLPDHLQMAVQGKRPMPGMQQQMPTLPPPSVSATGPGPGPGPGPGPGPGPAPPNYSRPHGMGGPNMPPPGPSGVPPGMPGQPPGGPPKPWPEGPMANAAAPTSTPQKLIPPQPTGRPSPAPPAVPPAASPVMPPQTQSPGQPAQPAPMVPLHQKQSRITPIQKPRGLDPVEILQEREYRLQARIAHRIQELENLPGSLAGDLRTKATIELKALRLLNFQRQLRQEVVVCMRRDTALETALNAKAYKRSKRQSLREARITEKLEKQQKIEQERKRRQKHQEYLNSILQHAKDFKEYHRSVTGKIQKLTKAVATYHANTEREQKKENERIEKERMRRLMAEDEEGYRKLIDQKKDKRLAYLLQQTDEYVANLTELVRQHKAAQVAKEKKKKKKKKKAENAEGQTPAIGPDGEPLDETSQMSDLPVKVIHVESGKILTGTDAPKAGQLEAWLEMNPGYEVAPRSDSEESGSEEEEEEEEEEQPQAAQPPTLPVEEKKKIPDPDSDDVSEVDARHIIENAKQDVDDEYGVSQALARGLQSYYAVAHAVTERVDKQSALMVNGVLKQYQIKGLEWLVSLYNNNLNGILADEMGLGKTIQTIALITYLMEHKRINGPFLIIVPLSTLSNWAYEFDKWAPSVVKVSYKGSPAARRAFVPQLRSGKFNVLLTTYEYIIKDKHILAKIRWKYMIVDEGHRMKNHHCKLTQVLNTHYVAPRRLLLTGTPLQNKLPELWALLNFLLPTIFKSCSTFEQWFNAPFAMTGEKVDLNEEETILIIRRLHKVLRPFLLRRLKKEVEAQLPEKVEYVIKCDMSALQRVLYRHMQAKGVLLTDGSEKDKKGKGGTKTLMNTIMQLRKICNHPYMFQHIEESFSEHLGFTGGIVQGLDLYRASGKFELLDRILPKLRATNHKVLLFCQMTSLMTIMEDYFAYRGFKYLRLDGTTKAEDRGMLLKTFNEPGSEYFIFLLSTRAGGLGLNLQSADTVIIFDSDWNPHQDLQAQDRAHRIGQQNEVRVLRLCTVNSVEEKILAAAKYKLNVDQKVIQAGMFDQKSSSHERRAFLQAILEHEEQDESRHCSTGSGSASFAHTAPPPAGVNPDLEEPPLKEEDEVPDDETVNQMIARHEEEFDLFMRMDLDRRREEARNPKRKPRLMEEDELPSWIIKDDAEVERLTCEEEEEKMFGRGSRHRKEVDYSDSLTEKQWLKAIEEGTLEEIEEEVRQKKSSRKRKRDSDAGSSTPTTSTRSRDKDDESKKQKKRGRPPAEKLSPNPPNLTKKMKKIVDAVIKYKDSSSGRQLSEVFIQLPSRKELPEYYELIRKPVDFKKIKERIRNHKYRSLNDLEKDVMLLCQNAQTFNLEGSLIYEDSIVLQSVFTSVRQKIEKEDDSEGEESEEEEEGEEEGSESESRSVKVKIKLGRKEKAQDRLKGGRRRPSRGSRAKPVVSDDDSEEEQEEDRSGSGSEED
Procedure: as §1
For measurement of BRG1 degradation, a stable HeLa cell line expressing HiBit-BRG1 and LgBit was generated. The same protocol as above was then followed.
as §2

Structure (SMILES): Nc1nnc(-c2ccccc2O)cc1OCC12CC(C(=O)N3CC(CN4CCN(c5ccc6c(c5)C(=O)N(C5CCC(=O)NC5=O)C6=O)CC4)C3)(C1)C2 (centres unmarked) [Compound 100, 5-(4-((1-(3-(((3-amino-6-(2-hydroxyphenyl)pyridazin-4-yl)oxy)methyl)bicyclo[1.1.1]pentane-1-carbonyl)azetidin-3-yl)methyl)piperazin-1-yl)-2-(2,6-dioxopiperidin-3-yl)isoindoline-1,3-dione; formic acid]
- BRM HiBit Degradation Maximum (%) (HiBit-BRM fusion protein): C (“C” indicates maximum degradation < 50%)
- Dmax [1]: < 50%

Structure (SMILES): Cc1ncsc1-c1ccc(CNC(=O)[C@@H]2C[C@@H](O)CN2C(=O)[C@@H](NC(=O)CCCCCCCNC(=O)C23CC(COc4cc(-c5ccccc5O)nnc4N)(C2)C3)C(C)(C)C)cc1 [Compound 71, (2S,4R)-1-((S)-2-(8-(3-(((3-amino-6-(2-hydroxyphenyl)pyridazin-4-yl)oxy)methyl)bicyclo[1.1.1]pentane-1-carboxamido)octanamido)-3,3-dimethylbutanoyl)-4-hydroxy-N-(4-(4-methylthiazol-5-yl)benzyl)pyrrolidine-2-carboxamide]
- BRM HiBit Degradation Maximum (%) (HiBit-BRM fusion protein): B (“B” indicates maximum degradation ≥ 50%)
- Dmax [1]: < 50%

Structure (SMILES): Cc1ncsc1-c1ccc(CNC(=O)[C@@H]2C[C@@H](O)CN2C(=O)[C@@H](NC(=O)CCCCCCCCCCCCC(=O)NCC23CC(COc4cc(-c5ccccc5O)nnc4N)(C2)C3)C(C)(C)C)cc1 [Compound 40, N1-((3-(((3-amino-6-(2-hydroxyphenyl)pyridazin-4-yl)oxy)methyl)bicyclo[1.1.1]pentan-1-yl)methyl)-N14-((S)-1-((2S,4R)-4-hydroxy-2-((4-(4-methylthiazol-5-yl)benzyl)carbamoyl)pyrrolidin-1-yl)-3,3-dimethyl-1-oxobutan-2-yl)tetradecanediamide]
- BRM HiBit Degradation Maximum (%) (HiBit-BRM fusion protein): B (“B” indicates maximum degradation ≥ 50%)
- Dmax [1]: < 50%

Structure (SMILES): Nc1nnc(-c2ccccc2O)cc1OCCC12CC(NC(=O)CCN3CCN(c4ccc5c(c4)C(=O)N(C4CCC(=O)NC4=O)C5=O)CC3)(C1)C2 (centres unmarked) [Compound 33, N-(3-(2-((3-amino-6-(2-hydroxyphenyl)pyridazin-4-yl)oxy)ethyl)bicyclo[1.1.1]pentan-1-yl)-3-(4-(2-(2,6-dioxopiperidin-3-yl)-1,3-dioxoisoindolin-5-yl)piperazin-1-yl)propanamide]
- BRM HiBit Degradation Maximum (%) (HiBit-BRM fusion protein): C (“C” indicates maximum degradation < 50%)
- Dmax [1]: < 50%

Structure (SMILES): Nc1nnc(-c2ccccc2O)cc1OCC12CC(C(=O)N3CCN(CCOc4ccc5c(c4)C(=O)N(C4CCC(=O)NC4=O)C5=O)CC3)(C1)C2 (centres unmarked) [Compound 103, 5-(2-(4-(3-(((3-amino-6-(2-hydroxyphenyl)pyridazin-4-yl)oxy)methyl)bicyclo[1.1.1]pentane-1-carbonyl)piperazin-1-yl)ethoxy)-2-(2,6-dioxopiperidin-3-yl)isoindoline-1,3-dione; formic acid]
- BRM HiBit Degradation Maximum (%) (HiBit-BRM fusion protein): C (“C” indicates maximum degradation < 50%)
- Dmax [1]: < 50%

Structure (SMILES): Cc1ncsc1-c1ccc(CNC(=O)[C@@H]2C[C@@H](O)CN2C(=O)[C@@H](NC(=O)CCCCC(=O)NCC23CC(COc4cc(-c5ccccc5O)nnc4N)(C2)C3)C(C)(C)C)cc1 [Compound 35, N1-((3-(((3-amino-6-(2-hydroxyphenyl)pyridazin-4-yl)oxy)methyl)bicyclo[1.1.1]pentan-1-yl)methyl)-N6-((S)-1-((2S,4R)-4-hydroxy-2-((4-(4-methylthiazol-5-yl)benzyl)carbamoyl)pyrrolidin-1-yl)-3,3-dimethyl-1-oxobutan-2-yl)adipamide]
- BRM HiBit Degradation Maximum (%) (HiBit-BRM fusion protein): C (“C” indicates maximum degradation < 50%)
- Dmax [1]: < 50%

Structure (SMILES): Nc1nnc(-c2ccccc2O)cc1OCCC12CC(NC(=O)CCN3CC4(C3)CN(c3ccc5c(c3)C(=O)N(C3CCC(=O)NC3=O)C5=O)C4)(C1)C2 (centres unmarked) [Compound 34, N-(3-(2-((3-amino-6-(2-hydroxyphenyl)pyridazin-4-yl)oxy)ethyl)bicyclo[1.1.1]pentan-1-yl)-3-(6-(2-(2,6-dioxopiperidin-3-yl)-1,3-dioxoisoindolin-5-yl)-2,6-diazaspiro[3.3]heptan-2-yl)propanamide]
- BRM HiBit Degradation Maximum (%) (HiBit-BRM fusion protein): C (“C” indicates maximum degradation < 50%)
- Dmax [1]: < 50%

Structure (SMILES): Cc1ncsc1-c1ccc(CNC(=O)[C@@H]2C[C@@H](O)CN2C(=O)[C@@H](NC(=O)CCCCCCCCCCCCC(=O)NC23CC(CCOc4cc(-c5ccccc5O)nnc4N)(C2)C3)C(C)(C)C)cc1 [Compound 49, N1-(3-(2-((3-amino-6-(2-hydroxyphenyl)pyridazin-4-yl)oxy)ethyl)bicyclo[1.1.1]pentan-1-yl)-N14-((S)-1-((2S,4R)-4-hydroxy-2-((4-(4-methylthiazol-5-yl)benzyl)carbamoyl)pyrrolidin-1-yl)-3,3-dimethyl-1-oxobutan-2-yl)tetradecanediamide]
- BRM HiBit Degradation Maximum (%) (HiBit-BRM fusion protein): C (“C” indicates maximum degradation < 50%)
- Dmax [1]: < 50%

Continued, in another order:

- Dmax [1]: < 50%
Structure (SMILES): Nc1nnc(-c2ccccc2O)cc1OCC12CC(C(=O)NCCOCCOCCOCCNC(=O)COc3ccc4c(c3)C(=O)N(C3CCC(=O)NC3=O)C4=O)(C1)C2 (centres unmarked) [Compound 93, 3-(((3-amino-6-(2-hydroxyphenyl)pyridazin-4-yl)oxy)methyl)-N-(1-((2-(2,6-dioxopiperidin-3-yl)-1,3-dioxoisoindolin-5-yl)oxy)-2-oxo-6,9,12-trioxa-3-azatetradecan-14-yl)bicyclo[1.1.1]pentane-1-carboxamide]
- BRM HiBit Degradation Maximum (%) (HiBit-BRM fusion protein): C (“C” indicates maximum degradation < 50%)

- Dmax [1]: < 50%
Structure (SMILES): Nc1nnc(-c2ccccc2O)cc1OCC12CC(C(=O)NCCOCCOCCNC(=O)COc3ccc4c(c3)C(=O)N(C3CCC(=O)NC3=O)C4=O)(C1)C2 (centres unmarked) [Compound 91, 3-(((3-amino-6-(2-hydroxyphenyl)pyridazin-4-yl)oxy)methyl)-N-(2-(2-(2-(2-((2-(2,6-dioxopiperidin-3-yl)-1,3-dioxoisoindolin-5-yl)oxy)acetamido)ethoxy)ethoxy)ethyl)bicyclo[1.1.1]pentane-1-carboxamide]
- BRM HiBit Degradation Maximum (%) (HiBit-BRM fusion protein): C (“C” indicates maximum degradation < 50%)

- Dmax [1]: < 50%
Structure (SMILES): Nc1nnc(-c2ccccc2O)cc1OCC12CC(CNC(=O)CCCCCCCCCCNc3ccc4c(c3)C(=O)N(C3CCC(=O)NC3=O)C4=O)(C1)C2 (centres unmarked) [Compound 10, N-[[3-([[3-amino-6-(2-hydroxyphenyl)pyridazin-4-yl]oxy]methyl)bicyclo[1.1.1]pentan-1-yl]methyl]-11-[[2-(2,6-dioxopiperidin-3-yl)-1,3-dioxoisoindol-5-yl]amino]undecanamide]
- BRM HiBit Degradation Maximum (%) (HiBit-BRM fusion protein): C (“C” indicates maximum degradation < 50%)

- Dmax [1]: < 50%
Structure (SMILES): Nc1nnc(-c2ccccc2O)cc1OCC12CC(CNC(=O)CCOCCOCCNc3cccc4c3C(=O)N(C3CCC(=O)NC3=O)C4=O)(C1)C2 (centres unmarked) [Compound 11, N-[[3-([[3-amino-6-(2-hydroxyphenyl)pyridazin-4-yl]oxy]methyl)bicyclo[1.1.1]pentan-1-yl]methyl]-3-[2-(2-[[2-(2,6-dioxopiperidin-3-yl)-1,3-dioxoisoindol-4-yl]amino]ethoxy)ethoxy]propanamide]
- BRM HiBit Degradation Maximum (%) (HiBit-BRM fusion protein): C (“C” indicates maximum degradation < 50%)

- Dmax [1]: < 50%
Structure (SMILES): Nc1nnc(-c2ccccc2O)cc1OCC12CC(CNC(=O)CCCCCCCCNc3cccc4c3C(=O)N(C3CCC(=O)NC3=O)C4=O)(C1)C2 (centres unmarked) [Compound 7, N-[[3-([[3-amino-6-(2-hydroxyphenyl)pyridazin-4-yl]oxy]methyl)bicyclo[1.1.1]pentan-1-yl]methyl]-9-[[2-(2,6-dioxopiperidin-3-yl)-1,3-dioxoisoindol-4-yl]amino]nonanamide]
- BRM HiBit Degradation Maximum (%) (HiBit-BRM fusion protein): C (“C” indicates maximum degradation < 50%)

- Dmax [1]: < 50%
Structure (SMILES): Cc1nc2cccc(NCCCCCCNC(=O)C34CC(COc5cc(-c6ccccc6O)nnc5N)(C3)C4)c2c(=O)n1C1CCC(=O)NC1=O (centres unmarked) [Compound 67, 3-(((3-amino-6-(2-hydroxyphenyl)pyridazin-4-yl)oxy)methyl)-N-(6-((3-(2,6-dioxopiperidin-3-yl)-2-methyl-4-oxo-3,4-dihydroquinazolin-5-yl)amino)hexyl)bicyclo[1.1.1]pentane-1-carboxamide]
- BRM HiBit Degradation Maximum (%) (HiBit-BRM fusion protein): C (“C” indicates maximum degradation < 50%)

- Dmax [1]: < 50%
Structure (SMILES): Nc1nnc(-c2ccccc2O)cc1OCC12CC(C(=O)NCCOCc3cccc(COCCOc4ccc5c(c4)C(=O)N(C4CCC(=O)NC4=O)C5=O)c3)(C1)C2 (centres unmarked) [Compound 84, 3-(((3-amino-6-(2-hydroxyphenyl)pyridazin-4-yl)oxy)methyl)-N-(2-((3-((2-((2-(2,6-dioxopiperidin-3-yl)-1,3-dioxoisoindolin-5-yl)oxy)ethoxy)methyl)benzyl)oxy)ethyl)bicyclo[1.1.1]pentane-1-carboxamide; formic acid]
- BRM HiBit Degradation Maximum (%) (HiBit-BRM fusion protein): C (“C” indicates maximum degradation < 50%)

- Dmax [1]: < 50%
Structure (SMILES): Nc1nnc(-c2ccccc2O)cc1OCC12CC(CNC(=O)CCCCCCOc3cccc4c3C(=O)N(C3CCC(=O)NC3=O)C4=O)(C1)C2 (centres unmarked) [Compound 4, N-[[3-([[3-amino-6-(2-hydroxyphenyl)pyridazin-4-yl]oxy]methyl)bicyclo[1.1.1]pentan-1-yl]methyl]-7-[[2-(2,6-dioxopiperidin-3-yl)-1,3-dioxoisoindol-4-yl]oxy]heptanamide]
- BRM HiBit Degradation Maximum (%) (HiBit-BRM fusion protein): C (“C” indicates maximum degradation < 50%)
